According to patent publication EP0451772A1, “Piperidine compounds, method for preparation thereof, and a pharamceutical composition comprising the same” (HOKURIKU PHARMACEUTICAL CO., LTD., priority 1990, dated 1991):
Structures can show the parent of a compound that is named as a salt. Where two headings read alike, the source gives them in different places.

Legend:
[1] = system: passive cutaneous anaphylaxis (PCA) in rats; assay: 48 hr homologous passive cutaneous anaphylaxis (PCA) in rats; assay type: in vivo, Male Wistar rats; conditions: Rattus norvegicus, po, read-out: the percent inhibition of PCA in rats
Method: (§1) The results of 48 hr homologous passive cutaneous anaphylaxis (PCA) in rats with the monitoring of antiallergic activity and the results of potentiation of hexobarbital-induced anesthesia in mice with the monitoring of central nervous depressive activity are summarized in Table 1. The following compound was used as the reference compound. Reference compound : Ketotifen-Fumarate
Ascaris extract coupled with 2, 4-dinitrophenyl group (DNP-As) was prepared by the method of Koda et al. (Folia pharmacol. japon., 78, 319-334, 1981) and anti-DNP-As containing IgE antibody serum was prepared by the method of Tada and Okumura (J. Immunol., 106, 1019-1025, 1971). The PCA titer of the antiserum was estimated to be 1:128 by 48 hr PCA in rats.
Male Wistar rats weighing 160 to 200 g were sensitized passively by intradermal injection, in the back, of 0.05 ml of anti-DNP-As serum diluted 21-fold with saline. After 48 hr, the animals (18-20 hr fasted) were given iv. 0.5 ml of 1% Evans blue solution containing 1 mg of DNP-As. After an additional 30 min, the animals were killed by stunning and the skins were removed. The intensity of the response was evaluated by assaying the amount of dye leaked according to the method of Katayama et al. (Microbiol. Immunol., 22, 89-101, 1978). The percent inhibition of PCA was calculated using the following formula: [formula]
Test compounds were given orally in a dose of 1 mg/kg 1 hr prior to challenge with antigen. As a control, 5 ml/kg of vehicle (0.5 % CMC) alone were given in a similar manner.

[2] = system: hexobarbital-induced anesthesia in mice; parameters: species or system male ddY mice; conditions: mouse, in vivo
Description: as §1
The loss of righting reflex induced by hexobarbital was used as an index of anesthesia. Groups of eight male ddY mice (20-24 hr fasted) weighing 19 to 27 g were treated orally with the test compounds (30 mg/kg) or vehicle. Thirty min later, 80 mg/kg of hexobarbital sodium were injected i.p. to the animals and the duration of loss of righting reflex was observed.

[3] = 1 mg/kg, p.o., 1 hr prior to challenge with antigen, amount of dye leaked

SMILES | inhibition in vivo at 1 mg/kg [1, 3] | the percent increase of hexobarbital-induced anesthesia in mice [2] | inhibition in vivo at 1 mg/kg [1]
O=C(O)CCCN1CCC(=C2c3ccccc3CSc3ccccc32)CC1 [Example 13, 4-(Dibenzo[b,e]thiepin-11(6H)-ylidene)-1-piperidinebutyric Acid Hydrochloride] | 58% | 30% | –
Cl.O=C(O)CCCCCN1CCC(=C2c3ccccc3CSc3ccccc32)CC1 [Example 15, 4-(Dibenzo[b,e]thiepin-11(6H)-ylidene)-1-piperidinecaproic Acid Hydrochloride] | 57% | 33% | –
O=C(O)CCN1CCC(=C2c3ccccc3CSc3ccccc32)CC1 [Example 10, 4-(Dibenzo[b,e]thiepin-11(6H)-ylidene)-1-piperidinepropionic Acid Hydrochloride] | 69% | 19% | –
Cl.O=C(O)CCCCN1CCC(=C2c3ccccc3CC(=O)c3sccc32)CC1 [Example 8, 4-(4,9-Dihydro-10-oxo-10H-benzo[4,5]cyclohepta[1,2-b]thiophen-4-ylidene)-1-piperidinevaleric Acid Hydrochloride] | 71% | 27% | –
CN1CCC(=C2c3ccccc3CC(=O)c3sccc32)CC1 [Reference compound, 4,9-dihydro-4-(1-methyl-4-piperidinylidene)-10H-benzo[4,5]cyclohepta[1,2-b]thiophen-10-one, reference compound] | – | 90% | 56%
Cl.O=C(O)CCN1CCC(=C2c3ccccc3CC(=O)c3sccc32)CC1 [Example 5, 4-(4,9-Dihydro-10-oxo-10H-benzo[4,5]cyclohepta[1,2-b]thiophen-4-ylidene)-1-piperidinepropionic Acid Hydrochloride] | 75% | 24% | –
O=C(O)CCN1CCC(=C2c3ccccc3Sc3ccccc32)CC1 [Example 18, 4-(9H-Thioxanthen-9-ylidene)-1-piperidinepropionic Acid] | 96% | 49% | –
Cl.O=C(O)CCCCN1CCC(=C2c3ccccc3CSc3ccccc32)CC1 [Example 14, 4-(Dibenzo[b,e]thiepin-11(6H)-ylidene)-1-piperidinevaleric Acid Hydrochloride] | 63% | 19% | –
Cl.O=C(O)CCCN1CCC(=C2c3ccccc3CC(=O)c3sccc32)CC1 [Example 6, 4-(4,9-Dihydro-10-oxo-10H-benzo[4,5]cyclohepta[1,2-b]thiophen-4-ylidene)-1-piperidinebutyric Acid Hydrochloride] | 77% | 26% | –
